Experimental data from PubChem BioAssay (NCI).
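1) Cells in 96-well plates. 2) Compound, 48 h, 5 concentrations. 3) Linear interpolation between surrounding doses. 4) Unreached endpoint = highest concentration. At the TGI there is no net growth.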

Assays:
Assay in all cases: NCI anticancer screen, dose series, 48 h
BT-549 breast = system: BT-549 breast
HOP-62 NSCLC = system: HOP-62 NSCLC
HT29 colon = system: HT29 colon
MDA-MB-231 breast = system: MDA-MB-231 breast
NCI-H23 lung = system: NCI-H23 lung
SF-268 CNS = system: SF-268 CNS
SK-MEL-5 melanoma = system: SK-MEL-5 melanoma
SNB-19 CNS = system: SNB-19 CNS
SW-620 colon = system: SW-620 colon
A498 renal = system: A498 renal

SMILES	TGI (BT-549 breast) [µM]	TGI (HOP-62 NSCLC) [µM]	TGI (HT29 colon) [µM]	TGI (MDA-MB-231 breast) [µM]	TGI (NCI-H23 lung) [µM]	TGI (SF-268 CNS) [µM]	TGI (SK-MEL-5 melanoma) [µM]	TGI (SNB-19 CNS) [µM]	TGI (SW-620 colon) [µM]	TGI (A498 renal) [µM]
Fc1cccc(F)c1C1SCc2nc3ccc(Cl)cc3n21 (configuration not stated)	> 100	> 100	> 100	> 100	> 100	> 100	> 100	> 100	> 100	
CCOC(=O)C1=COC(C)(CCc2ccccc2)CC1=O (configuration not stated)	> 100	> 100	> 100	> 100	> 100	> 100	> 100	> 100	> 100	> 100
Cn1c(N/N=C/c2ccccc2)nc(-c2ccc([N+](=O)[O-])cc2)c(C#N)c1=O		> 100	> 100	86.7	> 100	> 100	> 100	> 100	> 100	> 100
COc1ccc(-n2sc3ncccc3c2=O)cc1	38.6	56.7	43	45.1	36.8	58.3	44.6	> 100	79.6	
NNC(=O)c1cc(=O)[nH][nH]1	> 100		> 100	> 100	> 100	> 100	> 100	> 100	> 100	
COc1cc(C2c3cc4c(cc3OC(NCCO)C2C)OCO4)cc(OC)c1OC (configuration not stated)	> 100	9.03	21.4	> 100	> 100	> 84.9	13.4	> 100	> 100	2.81
NC(Cc1ccc(S(=O)(=O)O)cc1)C(=O)NC(Cc1ccc(S(=O)(=O)O)cc1)C(=O)O (configuration not stated)	> 100	> 100	> 100	> 100	> 100	> 100	> 100		> 100	> 100
CC1C(c2ccc(Cl)cc2)c2cc3c(cc2OC1N1CCOCC1)OCO3 (configuration not stated)		> 100	> 100		> 100	> 100	> 100	> 100	> 100	
CC(=O)N(O)c1ccc(-c2nc3ccccc3s2)cc1		> 100	> 100	> 100	> 100	> 100	> 100	> 100	> 100	> 100
C[C@H]1S[C@H](c2c(Cl)cccc2Cl)N2Cc3ccccc3N=C12	> 100	32.6		> 100	28.8	32.5	23.3	23.3	> 100	66
COC(OC)[C@@H]1OC[C@@H](O)[C@@H]1n1cnc2c(N)ncnc21	> 100	> 100	> 100	> 100	> 100	> 100	> 100		> 100	> 100
CC(=O)N1CCn2c1nc1cc(Cl)ccc12	> 100	40	> 100	> 100		> 100	> 100	> 100	> 100	> 100
